Marks after values point to notes of the source that are not given here.
Tests used:
Colon Cancer = assay: NCI-60 screening (SRB), subpanel; assay type: cell-based; conditions: for TGI MG_MID / GI50 / CC50: Colon Cancer subpanel, five-dose; for SI (TGI): Colon Cancer, MG_MID60/subpanel MG_MID; for GI50 / CC50: Homo sapiens; for GI50: read-out: GI50 MG_MID; for CC50: read-out: LC50 MG_MID
How it was run: (§1)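 Run per NCI protocol: cells exposed to compound for 48 h, growth measured spectrophotometrically by sulforhodamine B protein staining versus untreated controls. GI50, TGI and LC50 derived per cell line; subpanel MG_MID averages these, insensitive lines counted at the highest concentration tested.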

Leukemia = assay: NCI-60 screening (SRB), subpanel; assay type: cell-based; conditions: for SI (TGI): Leukemia, MG_MID60/subpanel MG_MID
How it was run: as §1

NSC lung cancer = assay: NCI-60 screening (SRB), subpanel; assay type: cell-based; conditions: for GI50 / CC50: Homo sapiens; for GI50 / CC50 / TGI MG_MID: NSC lung cancer subpanel, five-dose; for GI50: read-out: GI50 MG_MID; for CC50: read-out: LC50 MG_MID; for SI (TGI): NSCL cancer, MG_MID60/subpanel MG_MID
How it was run: as §1

Ovarian cancer = assay: NCI-60 screening (SRB), subpanel; assay type: cell-based; conditions: for GI50 / CC50: Homo sapiens; for GI50 / CC50 / TGI MG_MID: Ovarian cancer subpanel, five-dose; for GI50: read-out: GI50 MG_MID; for CC50: read-out: LC50 MG_MID; for SI (TGI): Ovarian Cancer, MG_MID60/subpanel MG_MID
How it was run: as §1

Prostate cancer = assay: NCI-60 screening (SRB), subpanel; assay type: cell-based; conditions: for GI50 / CC50: Homo sapiens; for GI50: read-out: GI50 MG_MID; for CC50: read-out: LC50 MG_MID; for SI (TGI): Prostate cancer, MG_MID60/subpanel MG_MID
How it was run: as §1

Renal Cancer = assay: NCI-60 screening (SRB), subpanel; assay type: cell-based; conditions: for GI50 / LC50 (50% net cell kill): Homo sapiens; for GI50 / LC50 (50% net cell kill) / TGI MG_MID: Renal cancer subpanel, five-dose; for GI50: read-out: GI50 MG_MID; for LC50 (50% net cell kill): read-out: LC50 MG_MID; for SI (TGI): Renal Cancer, MG_MID60/subpanel MG_MID
How it was run: as §1

A549/ATCC = assay: NCI-60 screening (SRB); assay type: cell-based, human; conditions: five-dose; for GI50 / CC50: Homo sapiens; for CC50: read-out: LC50 (the source's name)
EKVX = assay: NCI-60 screening (SRB); assay type: cell-based, human; conditions: five-dose; for GI50 / LC50: Homo sapiens
NCI-H522 = assay: NCI-60 screening (SRB); assay type: cell-based, human; conditions: five-dose
SW-620 = assay: NCI-60 screening (SRB); assay type: cell-based, human; conditions: five-dose; for GI50 / CC50: Homo sapiens; for CC50: read-out: LC50 (the source's name)
SF-295 = assay: NCI-60 screening (SRB); assay type: cell-based, human; conditions: five-dose; for GI50 / CC50: Homo sapiens; for CC50: read-out: LC50 (the source's name)
LOX IMVI = assay: NCI-60 screening (SRB); assay type: cell-based, human; conditions: for GI50 / CC50: Homo sapiens; for GI50 / CC50 / TGI: LOX IMVI, five-dose; for CC50: read-out: LC50 (the source's name)
NCI/ADR-RES = assay: NCI-60 screening (SRB); assay type: cell-based, human; conditions: five-dose; for GI50 / CC50: Homo sapiens; for CC50: read-out: LC50 (the source's name)
MDA-MB-31/ATCC = assay: NCI-60 screening (SRB); assay type: cell-based, human; conditions: five-dose; for GI50 / CC50: Homo sapiens; for CC50: read-out: LC50 (the source's name)
BAK gene, A375 = assay: Gene expression by qRT-PCR; assay type: cell-based, human; conditions: 1 μM, mean 2^∆∆Ct, DMSO 5.200
Text: (§2) Apoptosis at the cellular level can be initiated through the mitochondrial intrinsic pathway, which involves the Bcl-2 family of genes that includes the anti-apoptotic Bcl-XL and Bcl-2, as well as the pro-apoptotic Bak and Bax members; the balance between the expressions of anti- and pro-apoptotic proteins ensures physiological cell death. In cancers, the alterations occurring in gene expressions due to down- or up-regulations may result in delayed apoptosis and malignant proliferation. Thus, active compounds that modify the abnormal expression of genes involved in the apoptotic process may successfully act as anticancer agents. We tested the effect of compounds 4 and 6 on the expression of anti-apoptotic (Bcl-XL and Bcl-2) and pro-apoptotic (Bak and Bax) genes (Table 4, Figure 8).
(§3) Total RNA was extracted using peqGold RNAPureTM Package (Peqlab Biotechnology GmbH, Erlangen, Germany) according to the manufacturer’s instructions, and a DS-11 spectrophotometer (DeNovix, Wilmington, DE, USA) was used to measure total concentration of RNA. Reverse transcription was performed using the Maxima® First Strand cDNA Synthesis Kit (Fermentas, St. Leon-Rot, Germany), and the mix was incubated in the Tadvanced biometra product line (Analytik Jena AG, Jena, Germany) with a thermal program of 25 °C for 10 min, 85 °C for 5 min. Quantitative real-time PCR was conducted in a Quant Studio 5 real-time PCR system, (Thermo Fisher Scientific, Inc., Waltham, MA, USA), with analysis being performed in 20 µL reactions containing Power SYBR-Green PCR Master Mix (Thermo Fisher Scientific, Inc.). Cycling conditions were: 95 °C for 10 s followed by 40 cycles of denaturing at 95 °C for 15 s, and annealing and extension at 60 °C for 1 min.

BAX gene, A375 = assay: Gene expression by qRT-PCR; assay type: cell-based, human; conditions: 1 μM, mean 2^∆∆Ct, DMSO 4.063
Text: as §2, §3

Bcl-2 gene, RPMI = assay: Gene expression by qRT-PCR; assay type: cell-based, human; conditions: 1 μM, mean 2^∆∆Ct, DMSO 4.063
Text: as §2, §3

Bcl-2 gene, SK-Mel-28 = assay: Gene expression by qRT-PCR; assay type: cell-based, human; conditions: 1 μM, mean 2^∆∆Ct, DMSO 2.573
Text: as §2, §3

[1] = Prostate cancer subpanel, five-dose

## CCN1CCN(C(=O)[C@]23CC[C@@H](C)[C@H](C)[C@H]2C2=CC[C@@H]4[C@@]5(C)CCC(=O)C(C)(C)[C@@H]5CC[C@@]4(C)[C@]2(C)CC3)CC1 [Compound 4, N-(3-oxo-ursan-12-en-28-oyl)-ethylpiperazine]
Colon Cancer
  TGI MG_MID: 2.03 µM
  SI (TGI): 1.35
  GI50: 0.94 µM
  CC50: 5.92 µM
Leukemia
  SI (TGI): 1.12
NSC lung cancer
  GI50: 1.18 µM
  CC50: 17 µM
  TGI MG_MID: 3.60 µM
  SI (TGI): 0.76
Ovarian cancer
  GI50: 1.19 µM
  CC50: 16.2 µM
  SI (TGI): 0.77
  TGI MG_MID: 3.55 µM
Prostate cancer; [1]
  GI50: 1.27 µM
  CC50: 18.4 µM
  TGI MG_MID: 4.40 µM
Prostate cancer
  SI (TGI): 0.62
Renal Cancer
  GI50: 0.95 µM
  LC50 (50% net cell kill): 8.38 µM
  SI (TGI): 1.08
  TGI MG_MID: 2.53 µM
A549/ATCC
  GI50: 1.47 µM
  CC50: 21.8 µM
  TGI: 5.98 µM
EKVX
  GI50: 0.916 µM
  LC50: 8.95 µM
  TGI: 2.42 µM
NCI-H522; Homo sapiens
  GI50: 0.831 µM
NCI-H522; Homo sapiens, read-out: LC50 (the source's name)
  CC50: 3.69 µM
NCI-H522
  TGI: 1.75 µM
SW-620
  GI50: 0.902 µM
  CC50: 3.44 µM
  TGI: 1.76 µM
SF-295
  GI50: 0.82 µM
  CC50: 3.08 µM
  TGI: 1.59 µM
LOX IMVI
  GI50: 0.821 µM
  CC50: 2.8 µM
  TGI: 1.52 µM
LOX IMVI; LOXIMVI (Melanoma), 1 dose 10 µM
  Growth %: −85.17%
NCI/ADR-RES
  GI50: 1.08 µM
  CC50: 18.3 µM
  TGI: 3.24 µM
MDA-MB-31/ATCC
  GI50: 0.779 µM
  CC50: 2.88 µM
  TGI: 1.50 µM
BAK gene, A375
  Expression of BAK gene, Mean: 0.706 ***
BAX gene, A375
  Expression of BAX gene, Mean: 0.270 ***
Bcl-2 gene, RPMI
  Expression of Bcl-2 gene, Mean: 1.483 *
Bcl-2 gene, SK-Mel-28
  Expression of Bcl-2 gene, Mean: 0.083 *

## CCN1CCN(C(=O)[C@]23CC[C@@H](C)[C@H](C)[C@H]2C2=CC[C@@H]4[C@@]5(C)C/C(=C/c6cccnc6)C(=O)C(C)(C)[C@@H]5CC[C@@]4(C)[C@]2(C)CC3)CC1 [Compound 9, N-(2-{3-Pyridinylidene}-3-oxoursan-12-en-28-oyl)-ethylpiperazine]
Colon Cancer
  TGI MG_MID: 4.00 µM
  SI (TGI): 1.32
  GI50: 1.81 µM
  CC50: 33.7 µM
Leukemia; Homo sapiens, Leukemia subpanel, five-dose, read-out: LC50 MG_MID
  CC50: > 100 µM
Leukemia; Leukemia subpanel, five-dose
  TGI MG_MID: 7.09 µM
Leukemia
  SI (TGI): 0.75
NSC lung cancer
  GI50: 2.12 µM
  CC50: 47.1 µM
  TGI MG_MID: 6.81 µM
  SI (TGI): 0.78
Ovarian cancer
  GI50: 2.04 µM
  CC50: 36.2 µM
  SI (TGI): 1.02
  TGI MG_MID: 5.16 µM
Prostate cancer; [1]
  GI50: 1.79 µM
  CC50: 9.23 µM
Prostate cancer
  SI (TGI): 0.89
Renal Cancer
  GI50: 1.97 µM
  LC50 (50% net cell kill): 21.3 µM
  SI (TGI): 0.95
  TGI MG_MID: 5.57 µM
A549/ATCC
  GI50: 3.15 µM
  CC50: > 100 µM
  TGI: 16.8 µM
EKVX
  GI50: 2.17 µM
  LC50: 61.7 µM
  TGI: 7.32 µM
NCI-H522; Homo sapiens
  GI50: 1.66 µM
NCI-H522
  TGI: 3.86 µM
SW-620
  GI50: 1.9 µM
  CC50: 9.05 µM
  TGI: 4.14 µM
SF-295
  GI50: 1.63 µM
  CC50: 5.7 µM
  TGI: 3.05 µM
LOX IMVI
  GI50: 1.58 µM
  CC50: 5.91 µM
  TGI: 3.06 µM
NCI/ADR-RES
  GI50: 1.59 µM
  CC50: 6.91 µM
  TGI: 3.31 µM
MDA-MB-31/ATCC
  GI50: 1.75 µM
  CC50: 7.39 µM
  TGI: 3.59 µM

From article PMC8536124 (International Journal of Molecular Sciences, 2021)
